Assay results from patent US20230000869A1, “NOVEL ALK2 INHIBITORS AND METHODS FOR INHIBITING BMP SIGNALING” (The Brigham and Women's Hospital, Inc., priority 2017, published 2023).
Counter-ions that a name gives are not always drawn.

Legend:
TGFβ = assay: Luciferase reporter gene assay for TGFβ activity (HEK293T SBE-Luc SMAD2/3 reporter, TGFβ agonist); type: cell-based; details: TGFβ 5 ng/mL
Description: (§1) All cell lines were cultured in DMEM, supplemented with […] and 1% Pen/Strep. All media reagents were obtained from Gibco. BMP6, BMP9, and TGFβ were obtained from R&D Systems. C2C12-BRE and HEK293T-SBE were kept in selection with 400 ug/mL G418 from Invivogen.
(§2) In this reporter gene cell based ALK2 and TGFβ assay, the C2C12 cell line was employed for the measurement of ALK2 activity, using a BRE-Luc SMAD1/5/8 reporter and BMP6 as the agonist. The HEK293T cell line was employed to measure TGFβ activity, using a SBE-Luc SMAD2/3 reporter and TGFβ as the agonist. Luciferase reporter assays were read using Promega Steady-Glo Luciferase Assay System.
(§3) Cells were plated in 96 well white clear bottom assay plates at 10 k cells/well for C2C12-BRE, 15 k cells/well for HEK293-SBE in DMEM containing 2% FBS 1% P/S. Cells were given a minimum of 4 hours in incubator at 37° C./5% CO2 to adhere prior to further treatment. Compounds were diluted in DMSO to a 10-point dilution curve and added to the plate to reach the following final concentrations: 10000, 3000, 1000, 300, 100, and 30 nM in the HEK293-SBE assay and 1000, 300, 100, 30, 10, 3, 1, 0.3 nM in the C2C12-BRE assay. Negative and positive control wells received 2 μL DMSO as vehicle treatment. Plates were returned to incubator for 45 minutes and then BMP6 and TGFB were added to a final concentration of 50 ng/mL and 5 ng/mL, respectively. Plates were returned to the incubator and left overnight. After a minimum of 18 hours post BMP6/TGFβ addition, the plates were read using Promega Steady-Glo Luciferase Assay System. A 1:1 mixture of prepared steady-glo and phenol free DMEM was prepared, and 50 μL/well was added to the assay plates whose media had been flicked off. Plates were given 10 minutes post steady-glo addition before luminescence was read on a Spectramax M5e microplate reader. Negative control wells were averaged and subtracted from all other wells on the plate. Inhibition was calculated as the percent of signal loss compared to the averaged positive control wells.

ALK2 = molecular target: T1, ALK2 (Mus musculus, UniProt P37172); assay: Luciferase reporter gene assay for ALK2 activity (C2C12 BRE-Luc SMAD1/5/8 reporter, BMP6 agonist); type: cell-based; details: BMP6 50 ng/mL
T1 construct: endogenous in cells; host or cells: C2C12-BRE (BRE-Luc reporter line, G418 selection)
T1 sequence (P37172 21-509): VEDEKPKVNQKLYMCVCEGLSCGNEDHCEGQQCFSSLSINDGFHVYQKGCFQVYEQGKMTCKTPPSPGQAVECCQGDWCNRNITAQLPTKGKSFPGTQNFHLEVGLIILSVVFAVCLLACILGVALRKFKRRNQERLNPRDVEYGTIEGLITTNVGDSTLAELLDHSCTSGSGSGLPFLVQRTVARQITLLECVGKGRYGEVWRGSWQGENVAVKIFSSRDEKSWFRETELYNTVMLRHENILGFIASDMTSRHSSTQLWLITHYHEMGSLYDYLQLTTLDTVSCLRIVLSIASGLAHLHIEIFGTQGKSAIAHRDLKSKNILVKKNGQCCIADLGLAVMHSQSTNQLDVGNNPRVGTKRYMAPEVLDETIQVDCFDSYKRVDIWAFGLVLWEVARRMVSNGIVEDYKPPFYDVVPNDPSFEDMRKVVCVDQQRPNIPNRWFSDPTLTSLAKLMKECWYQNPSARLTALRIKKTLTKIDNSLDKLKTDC
Description: as §1, §2, §3

| SMILES | IC50 (TGFβ; Homo sapiens, HEK-293T) | IC50 (ALK2) | IC50 (TGFβ) |
| --- | --- | --- | --- |
| Cc1cc(-c2cnn3cc(N4CCC(N(C)C)CC4)cnc23)c2ccccc2n1 [Compound 189] | 92 nM | 137 nM |  |
| COc1cc2c(-c3cnn4cc(N5CCC(N6CCC(N(C)C)C6)CC5)cnc34)ccnc2cc1F (centres unmarked) [Compound 190] | 128 nM | 31 nM |  |
| COc1cc2c(-c3cnn4cc(N5CCOCC5)cnc34)ccnc2cc1F [Compound 192] | 184 nM | 89 nM |  |
| COc1cc2c(-c3cnn4cc(N5CC(N6CCOCC6)C5)cnc34)ccnc2cc1F [Compound 193] | 449 nM | 118 nM |  |
| COc1cc2c(-c3cnn4cc(N5CCN(C)CC5)cnc34)ccnc2cc1F [Compound 195] | 286 nM | 298 nM |  |
| Cc1cc(-c2cnn3cc(N4CCN(CC(C)(C)O)CC4)cnc23)c2ccccc2n1 [Compound 198] | 283 nM | 300 nM |  |
| COc1cc2c(-c3cnn4cc(N5CCN(c6ccnc(C)n6)CC5)cnc34)ccnc2cc1F [Compound 203] | > 3000 nM | 26 nM |  |
| CN1CCN(C2CCN(c3cnc4c(-c5ccnc6cccnc56)cnn4c3)CC2)CC1 [Compound 205] | > 3000 nM | 593 nM |  |
| COc1cc2c(-c3cnn4cc(N5CCC(N6CCN(C)CC(F)(F)C6)CC5)cnc34)ccnc2cc1F [Compound 206] | 817 nM | 356 nM |  |
| Cc1cc(-c2cnn3cc(N4CCC(N5CCN(C)CC(F)(F)C5)CC4)cnc23)c2ccccc2n1 [Compound 207] | 215 nM | 331 nM |  |
| COc1ccc2nccc(-c3cnn4cc(N5CCC(N6CCCN(C)CC6)CC5)cnc34)c2c1 [Compound 208] | 685 nM | 104 nM |  |
| COc1cc2c(-c3cnn4cc(N5CC(c6ccncc6)C5)cnc34)ccnc2cc1F [Compound 209] | 62 nM | 15 nM |  |
| Cc1cc(-c2cnn3cc(N4CC(c5ccncc5)C4)cnc23)c2ccccc2n1 [Compound 210] | 91 nM | 17 nM |  |
| CS(=O)(=O)c1cccc(-c2cnn3cc(N4CCNCC4)cnc23)c1 [Compound 212] | 760 nM | 38 nM |  |
| COc1cc2c(-c3c(N)nn4cc(N5CCC(N6CCN(C)CC6)CC5)cnc34)ccnc2cc1F [Compound 214, 3-(7-fluoro-6-methoxy-4-quinolyl)-6-[4-(4-methylpiperazin-1-yl)-1-piperidyl]pyrazolo[1,5-a]pyrimidin-2-amine] | > 1000 nM | > 1000 nM |  |
| COc1cc2c(-c3cnn4cc(N5CCC(N6CCN(C)CC6)CC5)cnc34)cc(=O)[nH]c2cc1F [Compound 220] | > 1000 nM | > 1000 nM |  |
| COc1ccc2nccc(-c3cnn4cc(N5CC(N6CCN(C)CC6)C5)cnc34)c2c1 [Compound 221] | 277 nM | 6 nM |  |
| Cc1cc(-c2cnn3cc(N4CC(N5CCN(C)CC5)C4)cnc23)c2ccccc2n1 [Compound 222] | 70 nM | 14 nM |  |
| Cc1cc(-c2cnn3cc(N4CCC(N5CCN(C)CC5)CC4)cc(OC4CCOCC4)c23)c2ccccc2n1 [Compound 223] | > 3000 nM | 272 nM |  |
| COc1cc2c(-c3cnn4cc(N5CCC(N6CCN(C)CC6)CC5)cc(OC5CCOCC5)c34)ccnc2cc1F [Compound 224] | > 3000 nM | > 1000 nM |  |
| Cc1cc2nccc(-c3cnn4cc(N5CCC(N6CCN(C)CC6)CC5)cnc34)c2s1 [Compound 226] | > 1000 nM | 18 nM |  |
| Cc1cc2nccc(-c3cnn4cc(N5CCC(N6CCN(C)CC6)CC5)cnc34)c2[nH]1 [Compound 227] | 826 nM | 903 nM |  |
| CN1CCN(C2CCN(c3cnc4c(-c5cc(N)nc6ccccc56)cnn4c3)CC2)CC1 [Compound 229] | 9 nM | 52 nM |  |
| Cc1cc2nccc(-c3cnn4cc(N5CCC(N6CCN(C)CC6)CC5)cnc34)c2cc1C [Compound 233] | 589 nM | 70 nM |  |
| CN1CCN(C2CCN(c3cnc4c(-c5ccnc6ccc(C#N)cc56)cnn4c3)CC2)CC1 [Compound 234] | > 1000 nM | > 1000 nM |  |
| CN1CCN(C2CCN(c3cnc4c(-c5cc(C(F)(F)F)nc6ccccc56)cnn4c3)CC2)CC1 [Compound 236] | 267 nM | 975 nM |  |

Further lines, results first:

| IC50 (TGFβ; Homo sapiens, HEK-293T) | IC50 (ALK2) | IC50 (TGFβ) | SMILES |
| --- | --- | --- | --- |
| 514 nM | 22 nM |  | Cc1ccc2nccc(-c3cnn4cc(N5CCC(N6CCN(C)CC6)CC5)cnc34)c2c1 [Compound 185] |
| 370 nM | 57 nM |  | COc1cc2c(-c3cnn4cc(N5CCC(N)CC5)cnc34)ccnc2cc1F [Compound 186] |
| 32 nM | 37 nM |  | Cc1cc(-c2cnn3cc(N4CCC(N)CC4)cnc23)c2ccccc2n1 [Compound 187] |
| 126 nM | 50 nM |  | COc1cc2c(-c3cnn4cc(N5CCC(N(C)C)CC5)cnc34)ccnc2cc1F [Compound 188] |
| 138 nM | 221 nM |  | Cc1cc(-c2cnn3cc(N4CC(N5CCOCC5)C4)cnc23)c2ccccc2n1 [Compound 194] |
| 126 nM | 935 nM |  | Cc1cc(-c2cnn3cc(N4CCN(C)CC4)cnc23)c2ccccc2n1 [Compound 196] |
| 623 nM | 395 nM |  | Cc1cc(-c2cnn3cc(N4CCOCC4)cnc23)c2ccccc2n1 [Compound 197] |
| 498 nM | 23 nM |  | COc1cc2c(-c3cnn4cc(N5CCN(C6CN(C)C6)CC5)cnc34)ccnc2cc1F [Compound 199] |
| 324 nM | 94 nM |  | COc1cc2c(-c3cnn4cc(N5CCN(CC(C)(C)O)CC5)cnc34)ccnc2cc1F [Compound 200] |
| 327 nM | 13 nM |  | COc1cc2c(-c3cnn4cc(N5CC(CC#N)(N6CCN(C)CC6)C5)cnc34)ccnc2cc1F [Compound 201] |
| 359 nM | 507 nM |  | COc1cc2c(-c3cnn4cc(N5CCN(c6ccncc6)CC5)cnc34)ccnc2cc1F [Compound 202] |
| > 3000 nM | 11 nM |  | COc1cc2c(-c3cnn4cc(N5CCN(c6nnc(C)s6)CC5)cnc34)ccnc2cc1F [Compound 204] |
| 416 nM | 51 nM |  | COc1cc2c(-c3cnn4cc(N5CCC(C(C)(C)N)CC5)cnc34)ccnc2cc1F [Compound 211] |
| < 1 nM | < 1 nM |  | CS(=O)(=O)c1cccc(-c2cnn3cc(N4CCN(C5CCNCC5)CC4)cnc23)c1 [Compound 213, 3-(3-(methylsulfonyl)phenyl)-6-(4-(piperidin-4-yl)piperazin-1-yl)pyrazolo[1,5-a]pyrimidine trihydrochloride] |
| 142 nM | 34 nM |  | COc1cc2c(-c3cnn4cc(N5CCC(N6C[C@@H]7C[C@H]6CN7C)CC5)cnc34)ccnc2cc1F [Compound 215] |
|  | 24 nM | 44 nM | COc1cc2c(-c3cnn4cc(N5CCC6(CC5)CN(C)C6)cnc34)ccnc2cc1F [Compound 216] |
| 116 nM | 33 nM |  | COc1cc2c(-c3cnn4cc(N5CCC6(CCN(C)CC6)CC5)cnc34)ccnc2cc1F [Compound 217] |
| 141 nM | 26 nM |  | COc1cc2c(-c3cnn4cc(N5C[C@H]6CN(C)C[C@H]6C5)cnc34)ccnc2cc1F [Compound 218] |
| > 3000 nM | 381 nM |  | CN1CCN(C2CCN(c3cnc4c(-c5ccnc(N6CCOCC6)c5)cnn4c3)CC2)CC1 [Compound 219] |
| > 3000 nM | > 1000 nM |  | CN1CCN(C2CCN(c3cc(OC4CCOCC4)c4c(-c5cn[nH]c5)cnn4c3)CC2)CC1 [Compound 225] |
| 605 nM | 476 nM |  | CN1CCN(C2CCN(c3cnc4c(-c5ccnc6cc[nH]c56)cnn4c3)CC2)CC1 [Compound 228] |
| 505 nM | 46 nM |  | COc1cc2c(-c3cnn4cc(N5CCC(N6CCN(C)CC6)CC5)ccc34)ccnc2cc1F [Compound 230] |
| > 1000 nM | 25 nM |  | CN1CCN(C2CCN(c3cnc4c(-c5ccnc6ccc(C(F)(F)F)cc56)cnn4c3)CC2)CC1 [Compound 235] |
